Consider 32 molecules from ChEMBL document CHEMBL5154706, “Synthesis of lathyrane diterpenoid nitrogen-containing heterocyclic derivatives and evaluation of their anti-inflammatory activities” (Bioorg Med Chem, 2022).

What is called IC50 is the concentration needed to halve the response being measured.

The assay deals with RAW264.7. Put plainly: Antiinflammatory activity against mouse RAW264.7 cells assessed as inhibition of LPS-induced NO production preincubated for 3 hrs followed by LPS stimulation and measured after 24 hrs by Griess reagent based assay. It counts as functional, cell-based. A general note: The Griess reaction detects nitrite, a stable product of nitric oxide.

Consider `C/C1=C\[C@@H]2[C@H](CC[C@]3(CO3)[C@H](OC(=O)CCC(=O)OCCCCOc3no[n+]([O-])c3S(=O)(=O)c3ccccc3)[C@H]3[C@@H](O)[C@@H](C)C[C@]3(O)C1=O)C2(C)C`, for which the IC50 amounted to 1.82 µM. In the case of `C=C1CC[C@H]2[C@@H](/C=C(\C)C(=O)[C@@]3(O)C[C@H](C)[C@H](O)[C@@H]3[C@H]1OC(=O)CCN1C(=O)CS/C1=N\c1ccccc1)C2(C)C` it was 8.24 µM. Turning to `C=C1CC[C@H]2[C@@H](/C=C(\C)C(=O)[C@@]3(O)C[C@H](C)[C@H](O)[C@@H]3[C@H]1OC(=O)CCC(=O)OCCCCOc1no[n+]([O-])c1S(=O)(=O)c1ccccc1)C2(C)C`, the IC50 is 1.55 µM. The figure for `C=C1CC[C@H]2[C@@H](/C=C(\C)C(=O)[C@@]3(O)C[C@H](C)[C@H](O)[C@@H]3[C@H]1OC(=O)c1cnc(NC(=O)/C=C/c3ccccc3)s1)C2(C)C` is greater than 20 µM; for `C=C1CC[C@H]2[C@@H](/C=C(\C)C(=O)[C@@]3(OC(C)=O)C[C@H](C)[C@H](OC(=O)c4ccccc4)[C@@H]3[C@H]1OC(C)=O)C2(C)C` it is 8.06 µM; for `C=C1CC[C@H]2[C@@H](/C=C(\C)C(=O)[C@@]3(O)C[C@H](C)[C@H](O)[C@@H]3[C@H]1OC(=O)c1cn(CC)nc1-c1ccc(C(F)(F)F)cc1)C2(C)C` it is 7.8 µM. The figure for `C=C1CC[C@H]2[C@@H](/C=C(\C)C(=O)[C@@]3(O)C[C@H](C)[C@H](O)[C@@H]3[C@H]1OC(=O)CCC(=O)NCCOc1no[n+]([O-])c1S(=O)(=O)c1ccccc1)C2(C)C` is 1.19 µM. Consider `C/C1=C\[C@@H]2[C@H](CC[C@]3(CO3)[C@H](OC(=O)c3cnc(NC(=O)c4ccccc4)s3)[C@H]3[C@@H](O)[C@@H](C)C[C@]3(O)C1=O)C2(C)C`, for which the IC50 was 10.9 µM. In the case of `C=C1CC[C@H]2[C@@H](/C=C(\C)C(=O)[C@@]3(O)C[C@H](C)[C@H](O)[C@@H]3[C@H]1OC(=O)c1cnc(NC(=O)C3CCCCC3)s1)C2(C)C` it was 5.53 µM.

Turning to `C/C1=C\[C@@H]2[C@H](CC[C@]3(CO3)[C@H](OC(=O)c3cn(-c4ccccc4)nc3-c3ccc(C)cc3)[C@H]3[C@@H](O)[C@@H](C)C[C@]3(O)C1=O)C2(C)C`, the IC50 was greater than 20 µM.

Consider `CCn1cc(C(=O)O[C@@H]2[C@H]3[C@@H](O)[C@@H](C)C[C@]3(O)C(=O)/C(C)=C/[C@@H]3[C@H](CC[C@]24CO4)C3(C)C)c(-c2ccc(C)cc2)n1`, for which the 50% inhibitory concentration (IC50) is greater than 20 µM. In the case of `C/C1=C\[C@@H]2[C@H](CC[C@]3(CO3)[C@H](O)[C@H]3[C@@H](O)[C@@H](C)C[C@]3(O)C1=O)C2(C)C` it was 25.6 µM; in that of `C=C1CC[C@H]2[C@@H](/C=C(\C)C(=O)[C@@]3(O)C[C@H](C)[C@H](O)[C@@H]3[C@H]1OC(=O)c1cn(-c3ccccc3)nc1-c1ccc(F)cc1)C2(C)C`, 10.8 µM.

Turning to `CCn1cc(C(=O)O[C@@H]2[C@H]3[C@@H](O)[C@@H](C)C[C@]3(O)C(=O)/C(C)=C/[C@@H]3[C@H](CC[C@]24CO4)C3(C)C)c(-c2ccc(Cl)cc2)n1`, the IC50 was found to be 15.7 µM. In the case of `C/C1=C\[C@@H]2[C@H](CC[C@]3(CO3)[C@H](OC(=O)c3cnc(NC(=O)C4CCCCC4)s3)[C@H]3[C@@H](O)[C@@H](C)C[C@]3(O)C1=O)C2(C)C` it was 1.49 µM; in that of `C=C1CC[C@H]2[C@@H](/C=C(\C)C(=O)[C@@]3(O)C[C@H](C)[C@H](O)[C@@H]3[C@H]1OC(=O)CCC(=O)OCc1ccc(COc3no[n+]([O-])c3S(=O)(=O)c3ccccc3)cc1)C2(C)C`, 5.36 µM; in that of `C=C1CC[C@H]2[C@@H](/C=C(\C)C(=O)[C@@]3(O)C[C@H](C)[C@H](O)[C@@H]3[C@H]1OC(=O)CCC(=O)OCC#CCOc1no[n+]([O-])c1S(=O)(=O)c1ccccc1)C2(C)C`, 0.85 µM. In the case of `C/C1=C\[C@@H]2[C@H](CC[C@]3(CO3)[C@H](OC(=O)c3cn(-c4ccccc4)nc3-c3ccc(Cl)cc3)[C@H]3[C@@H](O)[C@@H](C)C[C@]3(O)C1=O)C2(C)C` it was greater than 20 µM; in that of `C=C1CC[C@H]2[C@@H](/C=C(\C)C(=O)[C@@]3(O)C[C@H](C)[C@H](O)[C@@H]3[C@H]1OC(=O)CCC(=O)OCc1c(-c3ccccc3)no[n+]1[O-])C2(C)C`, 5.47 µM.

With `C=C1CC[C@H]2[C@@H](/C=C(\C)C(=O)[C@@]3(O)C[C@H](C)[C@H](O)[C@@H]3[C@H]1OC(=O)c1cn(-c3ccccc3)nc1-c1ccc(Cl)cc1)C2(C)C`, the IC50 was greater than 20 µM. On to `C/C1=C\[C@@H]2[C@H](CC[C@]3(CO3)[C@H](OC(=O)CCC(=O)OCc3c(-c4ccccc4)no[n+]3[O-])[C@H]3[C@@H](O)[C@@H](C)C[C@]3(O)C1=O)C2(C)C`, for which the IC50 is 9.38 µM.

As to `C=C1CC[C@H]2[C@@H](/C=C(\C)C(=O)[C@@]3(O)C[C@H](C)[C@H](O)[C@@H]3[C@H]1O)C2(C)C`, the IC50 is 11.1 µM. In the case of `C/C1=C\[C@@H]2[C@H](CC[C@]3(CO3)[C@H](OC(=O)c3cnc(NC(=O)/C=C/c4ccccc4)s3)[C@H]3[C@@H](O)[C@@H](C)C[C@]3(O)C1=O)C2(C)C` it was greater than 20 µM; in that of `C/C1=C\[C@@H]2[C@H](CC[C@]3(CO3)[C@H](OC(=O)CCN3C(=O)CS/C3=N\c3ccccc3)[C@H]3[C@@H](O)[C@@H](C)C[C@]3(O)C1=O)C2(C)C`, greater than 20 µM; in that of `C/C1=C\[C@@H]2[C@H](CC[C@]3(CO3)[C@H](OC(=O)CCC(=O)OCc3ccc(COc4no[n+]([O-])c4S(=O)(=O)c4ccccc4)cc3)[C@H]3[C@@H](O)[C@@H](C)C[C@]3(O)C1=O)C2(C)C`, 2.61 µM. The figure for `CC(=O)Nc1ncc(C(=O)O[C@@H]2[C@H]3[C@@H](O)[C@@H](C)C[C@]3(O)C(=O)/C(C)=C/[C@@H]3[C@H](CC[C@]24CO4)C3(C)C)s1` is greater than 20 µM; for `C=C1CC[C@H]2[C@@H](/C=C(\C)C(=O)[C@@]3(O)C[C@H](C)[C@H](O)[C@@H]3[C@H]1OC(=O)c1cn(-c3ccccc3)nc1-c1ccc(C)cc1)C2(C)C` it is greater than 20 µM. The figure for `C=C1CC[C@H]2[C@@H](/C=C(\C)C(=O)[C@@]3(O)C[C@H](C)[C@H](O)[C@@H]3[C@H]1OC(=O)c1cnc(NC(C)=O)s1)C2(C)C` is greater than 20 µM. Regarding `C/C1=C\[C@@H]2[C@H](CC[C@]3(CO3)[C@H](OC(=O)CCC(=O)OCC#CCOc3no[n+]([O-])c3S(=O)(=O)c3ccccc3)[C@H]3[C@@H](O)[C@@H](C)C[C@]3(O)C1=O)C2(C)C`, the IC50 was found to be 1 µM. With `CCn1cc(C(=O)O[C@@H]2[C@H]3[C@@H](O)[C@@H](C)C[C@]3(O)C(=O)/C(C)=C/[C@@H]3[C@H](CC[C@]24CO4)C3(C)C)c(-c2ccc(N(C)C)cc2)n1`, the IC50 was greater than 20 µM. In the case of `C=C1CC[C@H]2[C@@H](/C=C(\C)C(=O)[C@@]3(O)C[C@H](C)[C@H](O)[C@@H]3[C@H]1OC(=O)c1cn(-c3ccccc3)nc1-c1ccc(C(F)(F)F)cc1)C2(C)C`, the IC50 was 11.2 µM. In the case of `C=C1CC[C@H]2[C@@H](/C=C(\C)C(=O)[C@@]3(O)C[C@H](C)[C@H](O)[C@@H]3[C@H]1OC(=O)c1cnc(NC(=O)c3ccccc3)s1)C2(C)C` it was 7.03 µM.
